The source of these data is patent US20220323406A1, “METHODS AND COMPOSITIONS FOR DIFFERENTIATING STEM CELLS” (Massachusetts Institute of Technology, priority 2019, published 2022).

The subject of assay [1] is ENR+CD organoids (ISC to Paneth cell differentiation). In words: Primary screen: basal (non-stimulated) lysozyme secretion LYZ.NS, 2.5-D 384-well ENR+CD organoid differentiation. The format is cell-based, mouse. The text has this:
(§1) High-throughput screening.

Assay [2] concerns ENR+CD organoids. The experiment in a line: Primary screen: ATP (CellTiter-Glo 3D, CTG) cell number/viability, 2.5-D 384-well ENR+CD organoids.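 For all read-outs here: compounds given at plating and again on day 3 over a 6-day differentiation from ENR+CV stem-cell-enriched precursors, ATP measured on day 6, plate median as control.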 The following applies: primary screen; for Z.CTG: standard z score. (Cellular ATP, detected with luciferase, serves as a proxy for viable cell number.)
The subject of assay [3] is ENR+CD organoids (ISC to Paneth cell differentiation). The experiment in a line: Primary screen: CCh-stimulated lysozyme secretion LYZ.S, 2.5-D 384-well ENR+CD organoid differentiation. The format is cell-based, mouse. As to conditions: primary screen.
Text: as §1

Where [4] appears, read: primary screen, dose 0.08 uM, standard z score.
Setting [5] is: primary screen, dose 0.40 uM, standard z score.
[6] abbreviates: primary screen, dose 2.00 uM, standard z score.
Setting [7] is: primary screen, dose 10.00 uM, standard z score.
[8] abbreviates: primary screen; dose 0.08 uM; FC vs plate median.
The mark [9] stands for this setting: primary screen; dose 0.40 uM; FC vs plate median.
Setting [10] is: primary screen; dose 2.00 uM; FC vs plate median.
Setting [11] is: primary screen; dose 10.00 uM; FC vs plate median.
Where [12] appears, read: dose 0.08 uM, FC vs plate median.
Setting [13] is: dose 0.40 uM, FC vs plate median.
The mark [14] stands for this setting: dose 2.00 uM, FC vs plate median.
Where [15] appears, read: dose 10.00 uM, FC vs plate median.

Molecules are shown by their SMILES.

With `CCCC(=O)Nc1cccc(NC(=O)c2ccccc2Br)c1` [ML161], the Z.LYZ.NS was 0.158 in assay [1] (setting [4]), −0.237 in assay [1] (setting [5]), 0.323 in assay [1] (setting [6]) and −0.494 in assay [1] (setting [7]). Moreover, the Dose.FC.LYZ.NS in assay [1] (setting [8]) is given as 0.018 log2 fold change; in assay [1] (setting [9]) it was −0.027 log2 fold change; in assay [1] (setting [10]) it was 0.037 log2 fold change; in assay [1] (setting [11]), −0.057 log2 fold change. The Z.CTG in assay [2] (dose 0.08 uM) is on record as 0.205; in assay [2] (dose 0.40 uM) it was 0.067; in assay [2] (dose 2.00 uM) it was 0.157; in assay [2] (dose 10.00 uM) it was −0.084. For the same compound, the Dose.FC.CTG in assay [2] (setting [12]) is recorded as 0.086 log2 fold change; in assay [2] (setting [13]), 0.028 log2 fold change; in assay [2] (setting [14]), 0.066 log2 fold change; in assay [2] (setting [15]), −0.035 log2 fold change. Further, the Dose.FC.LYZ.S in assay [3] (setting [12]) is given as 0.017 log2 fold change; in assay [3] (setting [13]), −0.027 log2 fold change; in assay [3] (setting [14]), 0.024 log2 fold change; in assay [3] (setting [15]), −0.066 log2 fold change.
Regarding `C=C1C(=O)O[C@@H]2/C=C(\C)CC/C=C(\C)CC[C@@H]12` [Costunolide], the Dose.FC.LYZ.NS is given as 0.131 log2 fold change in assay [1] (primary screen, dose 0.08 uM); 0.067 log2 fold change in assay [1] (primary screen, dose 0.40 uM); −0.018 log2 fold change in assay [1] (primary screen, dose 2.00 uM); 0.047 log2 fold change in assay [1] (primary screen, dose 10.00 uM). Further, the Z.LYZ.NS in assay [1] (primary screen, standard z score, dose 0.08 uM) is 1.143; in assay [1] (primary screen, standard z score, dose 0.40 uM), 0.585; in assay [1] (primary screen, standard z score, dose 2.00 uM), −0.157; in assay [1] (primary screen, standard z score, dose 10.00 uM), 0.408. Also, the Dose.FC.CTG in assay [2] (dose 0.08 uM) is reported as −0.029 log2 fold change; in assay [2] (dose 0.40 uM) it was 0.121 log2 fold change; in assay [2] (dose 2.00 uM), 0.050 log2 fold change; in assay [2] (dose 10.00 uM), 0.008 log2 fold change. Moreover, the Dose.FC.LYZ.S in assay [3] (dose 0.08 uM) was 0.171 log2 fold change; in assay [3] (dose 0.40 uM), 0.103 log2 fold change; in assay [3] (dose 2.00 uM) it was −0.006 log2 fold change; in assay [3] (dose 10.00 uM), 0.006 log2 fold change.
Take `O=c1cc(N2CCOCC2)oc2c1ccc1ccccc12` [NU7026]: the Z.LYZ.NS in assay [1] (setting [4]) is 0.198; in assay [1] (setting [5]), 0.198; in assay [1] (setting [6]) it was −0.507; in assay [1] (setting [7]), −1.380. Moreover, the Dose.FC.LYZ.NS in assay [1] (setting [8]) is given as 0.023 log2 fold change; in assay [1] (setting [9]), 0.023 log2 fold change; in assay [1] (setting [10]) it was −0.058 log2 fold change; in assay [1] (setting [11]), −0.158 log2 fold change. Further, the Z.CTG in assay [2] (dose 0.08 uM) is on record as 0.230; in assay [2] (dose 0.40 uM), 0.248; in assay [2] (dose 2.00 uM) it was 0.255; in assay [2] (dose 10.00 uM) it was −0.284. The Dose.FC.CTG is recorded as 0.096 log2 fold change in assay [2] (setting [12]), 0.104 log2 fold change in assay [2] (setting [13]), 0.107 log2 fold change in assay [2] (setting [14]) and −0.119 log2 fold change in assay [2] (setting [15]). The Dose.FC.LYZ.S is given as 0.021 log2 fold change in assay [3] (setting [12]), 0.034 log2 fold change in assay [3] (setting [13]), −0.056 log2 fold change in assay [3] (setting [14]) and −0.198 log2 fold change in assay [3] (setting [15]).
With `CN1C(=O)C(Cc2c[nH]c3ccccc23)NC1=S` (stereo not shown) [Necrostatin-1], the Z.LYZ.NS in assay [1] (setting [4]) turned out to be 0.524; in assay [1] (setting [5]) it was 0.174; in assay [1] (setting [6]), 1.338; in assay [1] (setting [7]), 0.496. The Dose.FC.LYZ.NS in assay [1] (setting [8]) was found to be 0.060 log2 fold change; in assay [1] (setting [9]), 0.020 log2 fold change; in assay [1] (setting [10]) it was 0.154 log2 fold change; in assay [1] (setting [11]) it was 0.057 log2 fold change. Besides, the Z.CTG in assay [2] (dose 0.08 uM) came to 0.244; in assay [2] (dose 0.40 uM) it was 0.401; in assay [2] (dose 2.00 uM) it was 0.027; in assay [2] (dose 10.00 uM) it was 0.328. For the same compound, the Dose.FC.CTG was determined as 0.102 log2 fold change in assay [2] (setting [12]), 0.168 log2 fold change in assay [2] (setting [13]), 0.011 log2 fold change in assay [2] (setting [14]) and 0.137 log2 fold change in assay [2] (setting [15]). The Dose.FC.LYZ.S worked out at 0.077 log2 fold change in assay [3] (setting [12]), 0.038 log2 fold change in assay [3] (setting [13]), 0.092 log2 fold change in assay [3] (setting [14]) and 0.229 log2 fold change in assay [3] (setting [15]).
